Counter-ions that a name gives are not always drawn.
Key:
[1] = target: Histaminergic H1 (Homo sapiens, UniProt P35367); experiment: competitive radioligand binding, Histaminergic H1; conditions: compound concentration of 1 μM; read-out: radio-labelled ligand displacement, Histaminergic H1
Description: (§1) Profiles of pharmacological activity of thieno-pyrrolo[3,2-c]pyridines of the general formula 1. Biological activity test of compounds of the general formula 1 was carried out in the setting of competitive radioligand binding [I. Okun, S. Tkachenko, A. Khvat, et al., Current Alzheimer Research, 7(2), 97-112 (2010)], using a wide range of therapeutic targets including G-protein coupled receptors (GPCR), ion channels and neuromediator transporters. The tested activity was determined by quantitative measurement of radio-labelled ligand displacement by tested compounds of the general formula 1 at their concentration of 1 μM.

[2] = target: T1, Serotoninergic 5-HT1A (Homo sapiens, UniProt P08908); experiment: competitive radioligand binding, Serotoninergic 5-HT1A; conditions: compound concentration of 1 μM; read-out: radio-labelled ligand displacement, Serotoninergic 5-HT1A
T1 sequence (P08908 1-422): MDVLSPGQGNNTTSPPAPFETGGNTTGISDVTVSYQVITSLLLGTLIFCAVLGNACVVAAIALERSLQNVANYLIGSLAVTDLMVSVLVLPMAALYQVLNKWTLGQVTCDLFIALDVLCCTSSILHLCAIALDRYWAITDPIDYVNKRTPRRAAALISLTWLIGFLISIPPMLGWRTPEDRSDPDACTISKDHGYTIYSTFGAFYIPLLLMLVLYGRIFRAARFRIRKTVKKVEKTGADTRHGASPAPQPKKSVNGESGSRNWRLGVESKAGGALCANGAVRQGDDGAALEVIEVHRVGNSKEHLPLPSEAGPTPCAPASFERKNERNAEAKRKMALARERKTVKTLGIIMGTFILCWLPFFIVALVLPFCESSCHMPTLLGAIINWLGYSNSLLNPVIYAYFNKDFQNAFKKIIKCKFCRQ
Description: as §1

[3] = target: T2, Dopaminergic D4.2 (Homo sapiens, UniProt P21917, DEL265-296); experiment: competitive radioligand binding, Dopaminergic D4.2; conditions: compound concentration of 1 μM; read-out: radio-labelled ligand displacement, Dopaminergic D4.2
T2 sequence (P21917 with tags, fused parts or gaps DEL265-296): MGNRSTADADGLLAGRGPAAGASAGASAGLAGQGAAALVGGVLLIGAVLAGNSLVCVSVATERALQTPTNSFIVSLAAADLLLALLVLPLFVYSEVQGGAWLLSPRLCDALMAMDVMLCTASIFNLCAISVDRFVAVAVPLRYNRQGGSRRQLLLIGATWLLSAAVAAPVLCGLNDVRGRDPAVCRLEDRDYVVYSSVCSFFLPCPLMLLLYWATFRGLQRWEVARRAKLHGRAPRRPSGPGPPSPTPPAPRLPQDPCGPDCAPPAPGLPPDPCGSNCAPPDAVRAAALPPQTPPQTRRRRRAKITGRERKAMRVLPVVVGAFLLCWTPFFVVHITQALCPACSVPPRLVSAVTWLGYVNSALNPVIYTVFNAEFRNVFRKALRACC
Description: as §1

[4] = system: Therapeutic targets (Adrenergic, Dopaminergic, Histaminergic, Serotoninergic); experiment: Profiles of pharmacological activity in competitive radioligand binding (whole panel); conditions: 1 μM, grades not defined
Description: as §1

[5] = system: Adrenergic α1A; experiment: competitive radioligand binding, Adrenergic α1A; conditions: compound concentration of 1 μM
Description: as §1

[6] = system: male mice of BALB/c line; experiment: Porsolt's Forced Swim Test; type: in vivo; conditions: after 4 days injections in dose 1 mg/kg, last 5 minutes of the test
Description: Antidepressant action of antagonists of the general formula 1 in Porsolt's Forced Swim Test. Test apparatus represented a plastic vessel filled with water up to height of 18 cm at 20-22° C. Experiments were carried out in aged male mice of BALB/c line weighing 20-24 g.
Mice were placed in water and for 15 minutes duration of immobile hanging in water so called behavioural despaire, which is considered to be a measure of depressively-like state, was registered. The last 5 minutes of the test were used for analysis. Automated computerized detection of motion with videosystem and Any-maze program were used in the test.

[7] = system: male mice of BALB/c line; experiment: Passive Avoidance of mice in Shuttle Chamber (memory disturbed by Scopolamine); type: in vivo; conditions: intraperitoneally 30 minutes before training, in combination with Scopolamine
Description: Nootropic action (enhancement of memory disturbed by Scopolamine) of compounds of the general formula 1 in test “Passive Avoidance of mice in Shuttle Chamber”. Shuttle chamber (Ugo Basile, Italy) consisted of two sections was used. […] Sections were connected through a hole which could be overlapped by vertical door. The floor was made of transverse metal bars on which DC current impulses could be fed. Experiments were carried out in aged male mice of BALB/c line weighing 20-24 g. On the first day of experiment 30 minutes before training mice were injected intraperitoneally with physiological solution, (0.3 mg/kg) or Scopolamine in combination with compound 3.6(1).HCl, or Scopolamine in combination with compound 2.5(1).HCl. Each group consisted of 8 animals. Animals were placed in light section, and latent period of the first entry into the dark chamber was registered. Then the vertical door was closed and the animal was punished by 0.6 mA DC current for 3 seconds. After that the animal was taken back to its home cage. In 22-24 hours the same animal was placed again in light section of shuttle chamber and latent period of its first entry into dark section, total time of its stay in light section and number of entries into dark section was registered. Each monitoring lasted for 5 minutes. […]

[8] = system: male mice of BALB/c line; experiment: Mice behavior in tail suspension test; type: in vivo; conditions: after 4 days injections in dose of 0.1 mg/kg, 6 minutes
Description: Antidepressant action of compounds of the general formula 1 in test “Mice behavior in tail suspension test”. Experiments were carried out in aged male mice of BALB/c line weighing 20-24 g. Mice were suspended by tail with scotch tape on holder over horizontal surface at height of about 40 cm, and for 6 minutes of total duration of complete immobility episodes which is considered to be a measure of depressively-like state was registered. Automated computerized detection of motion with videosystem and Any-maze program were used in test.

[9] = system: Mice of SHK line; experiment: Prepulse inhibition of startle response in mice (Apomorphine); conditions: 1 mg/kg, subcutaneously 60 minutes before the test

Sequence of Histaminergic H1 (P35367 whole entry): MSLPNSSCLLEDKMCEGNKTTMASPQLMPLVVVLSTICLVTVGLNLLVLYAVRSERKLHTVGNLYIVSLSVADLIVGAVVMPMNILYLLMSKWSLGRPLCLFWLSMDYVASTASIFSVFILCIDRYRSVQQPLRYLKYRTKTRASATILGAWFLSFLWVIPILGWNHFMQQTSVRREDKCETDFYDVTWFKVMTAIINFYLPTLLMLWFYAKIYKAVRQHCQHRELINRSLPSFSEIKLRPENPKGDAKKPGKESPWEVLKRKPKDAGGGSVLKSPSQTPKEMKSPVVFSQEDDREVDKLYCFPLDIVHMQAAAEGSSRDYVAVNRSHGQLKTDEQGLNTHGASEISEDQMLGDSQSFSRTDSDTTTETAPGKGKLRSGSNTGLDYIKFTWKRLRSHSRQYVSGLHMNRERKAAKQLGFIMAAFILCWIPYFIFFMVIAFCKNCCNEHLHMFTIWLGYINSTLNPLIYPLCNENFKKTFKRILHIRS

Compound	inhibition at 1 µM [1]	inhibition at 1 µM [2]	inhibition at 1 µM [3]	grade of the activity profile (poor / satisfactory / good) [4]	radio-labelled ligand displacement, Adrenergic α1A [5]	Antidepressant action: duration of immobile hanging in water [6]	Nootropic action: training disturbed by Scopolamine [7]	Antidepressant action: duration of complete immobility [8]	Antipsychotic activity: disturbance of prepulse inhibition of startle caused by Apomorphine [9]
Cc1cc2c(s1)c1c(n2-c2cccc(F)c2)CCN(C)C1 [2.4(3)•HCl, 2,7-dimethyl-4-(3-fluorophenyl)-5,6,7,8-tetrahydro-4H-thieno[2′,3′:4,5]pyrrolo[3,2-c]pyridine]	38%	3%	3%	poor	17%	–	–	–	–
Cc1cc2c(s1)c1c(n2Cc2ccccc2)CCN(C)C1.Cl [2.5(1)•HCl, 4-Benzyl-2,7-dimethyl-5,6,7,8-tetrahydro-4H-thieno[2′,3′:4,5]pyrrolo[3,2-c]pyridine hydrochloride]	96%	3%	-3%	–	42%	decrease this index	improve training disturbed by Scopolamine	decrease the duration of complete immobility of mice	prevented disturbance of prepulse inhibition of startle caused by Apomorphine
Cc1ccc(Cn2c3c(c4sc(Cl)cc42)C(C)N(C)C(C)C3)cn1 (stereo not shown) [2.5(4)•HCl, 4-(6-methylpyridin-3-ylmethyl)-6,7,8-trimethyl-2-chloro-5,6,7,8-tetrahydro-4H-thieno[2′,3′:4,5]pyrrolo[3,2-c]pyridine]	70%	35%	-1%	satisfactory	51%	–	–	–	–
Cc1cc2c(s1)c1c(n2CCc2ccccc2)CCN(C)C1.Cl [2.6(1)•HCl, 2,7-Dimethyl-4-(2-phenylethyl)-5,6,7,8-tetrahydro-4H-thieno[2′,3′:4,5]pyrrolo[3,2-c]pyridine hydrochloride]	97%	16%	14%	–	83%	–	–	–	–
CC1Cc2c(c3sc(Cl)cc3n2C#Cc2cccc(F)c2)C(C)N1C (stereo not shown) [2.10(3)•HCl, 6,7,8-trimethyl-4-(3-fluorophenyl)ethynyl-2-chloro-5,6,7,8-tetrahydro-4H-thieno[2′,3′:4,5]pyrrolo[3,2-c]pyridine]	65%	6%	4%	poor	21%	–	–	–	–
Cc1ccc(CCCn2c3c(c4scc(Cl)c42)CN(C)CC3)cn1 [2.12(5)•HCl, 7-methyl-4-[3-(6-methylpyridin-3-yl)propyl]-3-chloro-5,6,7,8-tetrahydro-4H-thieno[2′,3′:4,5]pyrrolo[3,2-c]pyridine]	99%	57%	69%	good	98%	–	–	–	–
Cc1cc2c3c(n(Cc4ccccc4)c2s1)CCN(C)C3.Cl [3.5(1)•HCl, 8-Benzyl-2,5-dimethyl-5,6,7,8-tetrahydro-4H-thieno[3′,2′:4,5]pyrrolo[3,2-c]pyridine hydrochloride]	96%	42%	-5%	–	77%	–	–	–	–
Cc1cc2c3c(n(CCc4ccccc4)c2s1)CCN(C)C3.Cl [3.6(1)•HCl, 2,5-Dimethyl-8-(2-phenylethyl)-5,6,7,8-tetrahydro-4H-thieno[3′,2′:4,5]pyrrolo[3,2-c]pyridine hydrochloride]	98%	48%	71%	–	97%	decrease this index	improve training disturbed by Scopolamine	decrease the duration of complete immobility of mice	prevented disturbance of prepulse inhibition of startle caused by Apomorphine
Cc1cc2c3c(n(Cc4ccccc4)c2s1)CC1CCC3N1C (stereo not shown) [3.13(1)•HCl, 9-benzyl-2,10-dimethyl-4,5,6,7,8,9-hexahydro-4,7-epiminocyclohepta[b]thieno[3,2-d]pyrrole]	88%	19%	31%	satisfactory	61%	–	–	–	–
